Results on 27 molecules are retold here after US20230115208A1, “RING-FUSED THIAZOLINO 2-PYRIDONES, METHODS FOR PREPARATION THEREOF AND THEIR USE IN THE TREATMENT AND/OR PREVENTION OF TUBERCULOSIS” (QURETECH BIO AB, priority 2016, published 2023).

The test system of test [1] is Mycobacterium tuberculosis. The class given is cell-based.
The test system of the next test is katGFSAA6 Mtb. Put plainly: Lawn of katGFSAA6 Mtb plated on agar (FIG. 9c-9f). Format: cell-based, Mycobacterium tuberculosis.
Test [2] has as its system Erdman Wild-Type Mycobacterium tuberculosis. The class given is cell-based.
The subject of test [3] is Mycobacterium tuberculosis Erdman. Put plainly: Biofilm inhibition of Mycobacterium tuberculosis (ocular inspection). Conditions: for inhibition at 10 µM: read-out: Average % Inhibition at 10 μM; for inhibition at 25 µM: read-out: Average % Inhibition at 25 μM; for minimal effective concentration: concentration at which full biofilm inhibition took place, replicate determinations in one cell. The class given is cell-based.

Test [4] concerns Mycobacterium tuberculosis. Format: cell-based. The source holds these as a separate data set.
For another test, the system named is Mtb. Conditions: cited from earlier work.
Where [5] appears, read: biofilm inhibition, 10 μM, average of three or more measurements (100/50/0% scoring).
Setting [6] is: biofilm inhibition, 25 μM, average of three or more measurements (100/50/0% scoring).
Setting [7] is: biofilm inhibition, average of three or more measurements (100/50/0% scoring).

Where two headings read alike, the source gives them in different places.

With `O=C(O)[C@@H]1CSc2c(C3CC3)c(Cc3cccc4ccccc34)cc(=O)n21` [(3R)-7-Cyclopropyl-6-[(1-naphthyl)methyl]-4-oxo-1-thia-3a-aza-3-indancarboxylic acid], the “eradication of Mycobacterium tuberculosis (conclusion)” value in test [1] is recorded as “did not eradicate”.
For `O=C(O)[C@@H]1CSc2c(C3CC3)c(Cc3cccc4ccccc34)cc(=O)n21` [Example 1, (3R)-7-Cyclopropyl-6-[(1-naphthyl)methyl]-4-oxo-1-thia-3a-aza-3-indancarboxylic acid], in the test with katGFSAA6 Mtb, the “growth of katGFSAA6 strain on agar” value is reported as “able to grow”. Moreover, in test [2], the doubling time was found to be 52 h and the “fold less Mtb in the culture as compared to controls (CFU)” value was 7.6 fold. For the same molecule, in test [3], the inhibition – broadly, the percentage by which the read-out fell short of the control – at 10 µM worked out at 100% and the inhibition at 25 µM was 100%.
With `Cc1cccc(Cc2cc(=O)n3c(c2C2CC2)SC[C@H]3C(=O)O)c1` [Example 27, (3R)-7-Cyclopropyl-4-oxo-6-[(m-tolyl)methyl]-1-thia-3a-aza-3-indancarboxylic acid], the inhibition at 10 µM in test [3] (setting [5]) was 75%. The inhibition at 25 µM in test [3] (setting [6]) came out at 88%. In addition, in test [3] (setting [7]), the inhibition at 50 µM is 100%. Also, in test [3], the minimal effective concentration (as a rule, the lowest level tested that produced the effect sought) came to 25 µM.
Take `Cc1cccc(CCc2cc(=O)n3c(c2C(C)C)SC[C@H]3C(=O)O)c1` [Example 28, (3R)-7-Isopropyl-4-oxo-6-[2-(m-tolyl)ethyl]-1-thia-3a-aza-3-indancarboxylic acid]: the minimal effective concentration in test [3] came out at 50 µM.
On the same count and under the same terms, the same measure for `Cn1cc(-c2c(COc3cccc4ccccc34)cc(=O)n3c2SCC3C(=O)O)c2ccccc21` (stereo not shown) [Example 29, 7-(1-Methyl-1H-indol-3-yl)-6-[(1-naphthyloxy)methyl]-4-oxo-1-thia-3a-aza-3-indancarboxylic acid]: 50 µM; for `O=C(O)[C@@H]1CSc2c(C3CC3)c(Cc3ccc(Br)c4ccccc34)cc(=O)n21` [Example 30, (3R)-6-[(4-Bromo-1-naphthyl)methyl]-7-cyclopropyl-4-oxo-1-thia-3a-aza-3-indancarboxylic acid]: 50 µM.
`O=c1cc(Cc2cccc3ccccc23)c(C2CC2)c2n1CCS2` [Example 31, 7-Cyclopropyl-6-[(1-naphthyl)methyl]-1-thia-3a-aza-4-indanone] registered an inhibition at 50 µM in test [3] (setting [7]) of 100%.
`O=C(O)[C@@H]1CSc2c(C3CC3)c(Cc3cccc4ccccc34)c(CO)c(=O)n21` [Example 32, (3R)-7-Cyclopropyl-5-(hydroxymethyl)-6-[(1-naphthyl)methyl]-4-oxo-1-thia-3a-aza-3-indancarboxylic acid] came in with a minimal effective concentration in test [3] of 50 µM.
On the same count and under the same terms, the same measure for `N[C@@H]1CSc2c(C3CC3)c(Cc3cccc4ccccc34)cc(=O)n21` [Example 33, (3S)-3-Amino-7-cyclopropyl-6-[(1-naphthyl)methyl]-1-thia-3a-aza-4-indanone]: 25 µM.
Molecule `O=C(O)[C@@H]1[C@@H](c2ccccc2)Sc2c(C3CC3)c(Cc3cccc4ccccc34)cc(=O)n21` [Example 34, (2R,3R)-7-Cyclopropyl-6-[(1-naphthyl)methyl]-4-oxo-2-phenyl-1-thia-3a-aza-3-indancarboxylic acid] returned an inhibition at 50 µM in test [3] (setting [7]) of 25%. This molecule yielded a minimal effective concentration in test [3] of 30 µM.
Consider `CO[C@H]1Sc2c(C3CC3)c(Cc3cccc4ccccc34)cc(=O)n2[C@@H]1C(=O)O` [Example 35, (2S,3R)-7-Cyclopropyl-2-methoxy-6-[(1-naphthyl)methyl]-4-oxo-1-thia-3a-aza-3-indancarboxylic acid], for which the inhibition at 25 µM in test [3] (setting [6]) is 25%. Also, the inhibition at 100 µM in test [3] (setting [7]) came out at 75%. Further, in test [3], the minimal effective concentration was found to be 50 µM.
Turning to `O=C(O)C1CSc2c(C3CC3)c(Cc3cccc(C(F)(F)F)c3)cc(=O)n21` (stereo not shown) [Example 36, 7-Cyclopropyl-4-oxo-6-{[m-(trifluoromethyl)phenyl]methyl}-1-thia-3a-aza-3-indancarboxylic acid], the inhibition at 10 µM in test [3] (setting [5]) amounted to 100%. Also, the inhibition at 25 µM in test [3] (setting [6]) amounted to 100%. In test [3] (setting [7]), this molecule yielded an inhibition at 50 µM of 100%.
For `CCC(CO)NCCNC(CC)COC(=O)C1CSc2c(C3CC3)c(Cc3cccc4ccccc34)cc(=O)n21` (stereo not shown) [Example 37, 2-{2-[1-(Hydroxymethyl)propylamino]ethylamino}butyl 7-cyclopropyl-6-[(1-naphthyl)methyl]-4-oxo-1-thia-3a-aza-3-indancarboxylate], in test [3] (setting [5]), the inhibition at 10 µM was 100%. Further, the inhibition at 25 µM in test [3] (setting [6]) turned out to be 100%. For the same molecule, in test [3] (setting [7]), the inhibition at 50 µM amounted to 100%.
In the case of `O=C(NNC(=O)C1CSc2c(C3CC3)c(Cc3cccc4ccccc34)cc(=O)n21)c1ccncc1` (stereo not shown) [Example 38, {7-Cyclopropyl-6-[(1-naphthyl)methyl]-4-oxo-1-thia-3a-aza-3-indanyl}(2-isonicotinoylhydrazino)formaldehyde], the inhibition at 10 µM in test [3] (setting [5]) is 100%. Moreover, the inhibition at 25 µM in test [3] (setting [6]) was determined as 100%. Also, in test [3] (setting [7]), testing at 50 µM gave an inhibition of 100%. The molecule further registered a minimal effective concentration in test [3] of 25 µM.
For the molecule `COc1ccc(Cc2cc(=O)n3c(c2C2CC2)SCC3C(=O)O)c2ccccc12` (stereo not shown) [Example 39, 7-Cyclopropyl-6-[(4-methoxy-1-naphthyl)methyl]-4-oxo-1-thia-3a-aza-3-indancarboxylic acid], the inhibition at 10 µM in test [3] (setting [5]) came out at 50%. The inhibition at 25 µM in test [3] (setting [6]) worked out at 100%. The molecule further yielded an inhibition at 50 µM in test [3] (setting [7]) of 100%.
In the case of `CN(C)c1c(Cc2cccc3ccccc23)cc(=O)n2c1SC[C@H]2C(=O)O` [Example 40, (3R)-7-(Dimethylamino)-6-[(1-naphthyl)methyl]-4-oxo-1-thia-3a-aza-3-indancarboxylic acid], the inhibition at 10 µM in test [3] (setting [5]) amounted to 50%. Besides, the inhibition at 25 µM in test [3] (setting [6]) stood at 100%. At 50 µM the inhibition in test [3] (setting [7]) was 50%.
`O=C(O)[C@@H]1CSc2c(C3CC3)c(Cc3cccc4ccccc34)c(Br)c(=O)n21` [Example 41, (3R)-5-Bromo-7-cyclopropyl-6-[(1-naphthyl)methyl]-4-oxo-1-thia-3a-aza-3-indancarboxylic acid]: in test [3] (setting [5]), the inhibition at 10 µM is 25%. For the same molecule, the inhibition at 25 µM in test [3] (setting [6]) turned out to be 62%. In test [3] (setting [7]), this molecule returned an inhibition at 50 µM of 88% and an inhibition at 100 µM of 100%.
Consider `O=C(O)C1CS(=O)(=O)c2c(C3CC3)c(Cc3cccc4ccccc34)cc(=O)n21` (stereo not shown) [Example 42, 7-Cyclopropyl-6-[(1-naphthyl)methyl]-1,1-dioxo-4-oxo-1-thia-3a-aza-3-indancarboxylic acid], for which, in test [3] (setting [5]), the inhibition at 10 µM came out at 50%. In addition, in test [3] (setting [6]), the inhibition at 25 µM was found to be 12%. In test [3] (setting [7]), this molecule registered an inhibition at 50 µM of 12%.
Consider `Cc1cccc(NCc2cc(=O)n3c(c2C2CC2)SC[C@H]3C(=O)O)c1C` [Example 43, (3R)-7-Cyclopropyl-4-oxo-6-[(2,3-xylidino)methyl]-1-thia-3a-aza-3-indancarboxylic acid], for which the inhibition at 25 µM in test [3] (setting [6]) was 50%. The molecule further displayed an inhibition at 50 µM in test [3] (setting [7]) of 100%.
Consider `O=C(O)C1C[S+]([O-])c2c(C3CC3)c(Cc3cccc4ccccc34)cc(=O)n21` (stereo not shown) [Example 44, 7-Cyclopropyl-6-[(1-naphthyl)methyl]-1-oxo-4-oxo-1-thia-3a-aza-3-indancarboxylic acid], for which the inhibition at 10 µM in test [3] (setting [5]) was found to be 25%. Further, the inhibition at 25 µM in test [3] (setting [6]) is 75%. In test [3] (setting [7]), the inhibition at 50 µM was determined as 100%.
For the molecule `CCOc1c(Cc2cccc3ccccc23)cc(=O)n2c1SC[C@H]2C(=O)O` [Example 45, (3R)-7-Ethoxy-6-[(1-naphthyl)methyl]-4-oxo-1-thia-3a-aza-3-indancarboxylic acid], the inhibition at 25 µM in test [3] (setting [6]) was 50%. This molecule registered an inhibition at 50 µM in test [3] (setting [7]) of 25%.
The corresponding values for `CC1(C)Sc2c(C3CC3)c(Cc3cccc4ccccc34)cc(=O)n2[C@@H]1C(=O)O` [Example 46, (3R)-7-Cyclopropyl-2,2-dimethyl-6-[(1-naphthyl)methyl]-4-oxo-1-thia-3a-aza-3-indancarboxylic acid] are 62% and 38%.
In test [3] (setting [7]), `O=C(O)[C@@H]1CSc2c(C(F)(F)F)c(Cc3cccc4ccccc34)cc(=O)n21` [Example 47, (3R)-6-[(1-Naphthyl)methyl]-4-oxo-7-(trifluoromethyl)-1-thia-3a-aza-3-indancarboxylic acid] returned an inhibition at 50 µM of 100%. The minimal effective concentration in test [3] was > 50 µM.
In test [3] (setting [7]), `CC(C)COc1c(Cc2cccc3ccccc23)cc(=O)n2c1SC[C@H]2C(=O)O` [Example 48, (3R)-7-Isobutoxy-6-[(1-naphthyl)methyl]-4-oxo-1-thia-3a-aza-3-indancarboxylic acid] came in with an inhibition at 50 µM of 50%.
In the case of `COc1ccc2ccccc2c1Cc1cc(=O)n2c(c1C1CC1)SC[C@H]2C(=O)O` [Example 49, (3R)-7-Cyclopropyl-6-[(2-methoxy-1-naphthyl)methyl]-4-oxo-1-thia-3a-aza-3-indancarboxylic acid], the minimal effective concentration in test [3] came to 25 µM.
In test [3] (setting [7]), `O=C(O)[C@@H]1CSc2c(OCC3CC3)c(Cc3cccc4ccccc34)cc(=O)n21` [Example 50, (3R)-7-(Cyclopropylmethoxy)-6-[(1-naphthyl)methyl]-4-oxo-1-thia-3a-aza-3-indancarboxylic acid] came in with an inhibition at 50 µM of 25%.
Turning to `NNC(=O)c1ccncc1` [INH, isonicotinylhydrazide, reference compound], in the test with katGFSAA6 Mtb (agar plates containing INH, Example 1 or combination), the “growth of katGFSAA6 strain on agar” value was “able to grow”. The “tuberculosis bacteria detected (ratio of CFU treated/untreated)” value in test [4] ([…], Example 1 50 microM, Example 19 25 microM) is recorded as “tuberculosis bacteria remained”. Also, the “eradication of Mycobacterium tuberculosis (conclusion)” value in test [4] (conclusions from FIG. 5 and FIG. 6 experiments) is reported as “did not eradicate”. Besides, the MIC (in general, the lowest concentration that inhibits growth of the organism) in the test with Mtb is 0.02 to 0.06 µg/mL. Moreover, in test [2], the “Mtb growth as measured by ODλ600” value was “completely inhibited” and the “culturable bacteria remaining (CFU)” value was “several thousand”.
